Measurements reported in patent EP3263567A1, “CARBOXAMIDE-SUBSTITUTED PYRAZOLES AND TRI(HETERO)ARYL-PYRAZOLES FOR USE IN METHODS OF TREATING AND / OR PREVENTING CARDIOVASCULAR DISEASES AND / OR COMORBIDITIES THEREOF” (AiCuris Anti-infective Cures GmbH, priority 2016, dated 2018).
“Also recorded” adds a separate entry of the source.

System: Beagle dogs
Experiment: 4-week beagle dog experiment, non-invasive telemetry (ECG, heart rate, blood pressure)
Assay type: in vivo
Method: [drawing 93] i.e. 4-[5-[3-Chloro-5-(trifluoromethoxy)phenyl]-1-(pyridin-3-yl)-1H-pyrazol-3-yl]-5,6-dihydro-7H-pyrrolo[3,4-d]pyrimidin-7-one, was administered in a 4-week beagle dog experiment with integrated non-invasive telemetric electrocardiography (ECG) measurements for determining its cardiovascular effects; specifically its effects on the heart rate.
32 Beagle dogs (16 males and 16 females) with parameters in the normal range were tested for cardiovascular effects of Compound A administration and divided into the study groups indicated below.
The test compound A-formulation of the appropriate concentration was administered by oral administration at a constant administration volume/kg b.w.
• Groups 1 and 4: Twice daily at an 8-hour interval for 28 consecutive days. • Groups 2 to 3: Once daily for 28 consecutive days.
Telemetry parameters were monitored at the following times: • Predose and in test week 4: All 32 animals included in this study. • At the end of the recovery period in test week 8: All 8 recovery animals.
Parameters were monitored telemetrically with the EMKA Technologies System continuously starting approximately 24 hours prior to the first treatment (baseline; pre-dose values) and for approximately 24 hours in test week 4 and at the end of the recovery period in test week 8. The dogs were habituated and trained for wearing the jackets equipped with the telemetry transmitter and air-filled cuff placed on their tail.
The following telemetry parameters were determined: • Peripheral arterial blood pressure in the tail (blood flow occlusion using an air filled cuff) • Heart rate • Electrocardiography (QRS, QT, PQ, RR) • Respiration (respiratory inductive plethysmography; belts were placed around the thorax and abdomen) • Skin temperature • Physical activity.
The report includes the data recorded at the following intervals: • Pre-dose: Every 4 hours after start of recording (7 (Baseline; approx. 24 hours) tracings per animal) • Test week 4: Approx. 0, 1, 2, 6, and 24 hours after (Start of treatment to 24 hours post the 1 st administration of the day treatment relating to first dosing of the day) • At the end of the recovery period in Every 4 hours after start of recording (7 test week 8: tracings per animal)
The electrocardiogram was visually assessed for any abnormalities of the electrical complexes (i.e. arrhythmias, interval prolongations). In addition, the following parameters were evaluated:
Furthermore, the QTc-values were calculated according to the following Bazett-formula: QTc = (QT [sec])/(sqrt((R−R distance[sec]))) [formula]

[1] = 3, 10 or 2 x 50 mg/kg b.w./day oral, test week 4

How did the “start of telemetric changes after last administration” value (1st evaluated telemetric time-point, test week 4) turn out when `O=C1NCc2c1ncnc2-c1cc(-c2cc(Cl)cc(OC(F)(F)F)c2)n(-c2cccnc2)n1` [Compound A, 4-[5-[3-Chloro-5-(trifluoromethoxy)phenyl]-1-(pyridin-3-yl)-1H-pyrazol-3-yl]-5,6-dihydro-7H-pyrrolo[3,4-d]pyrimidin-7-one] was run?
The value was ≤ 5 min.

And the “effect on QTc interval” value (3, 10 or 2 x 50 mg/kg b.w./day oral, 4 weeks)?
Its value is “no adverse effects on QTc-interval; also recorded: no effect on QTc; also recorded: No influence”.

What about the “prolonged QT interval” value [1] of the same compound?
Its value is ≤ 50%.

What about the “prolonged RR interval” value [1] of the same compound?
Its value is ≤ 140%.

What about the decreased heart rate (3, 10 or 2 x 50 mg/kg b.w./day oral, test week 4, compared to control group) of the same compound?
Its decreased heart rate is ≤ 50%.

And the “severe bradycardia or atrial fibrillation” value (beagle dog study)?
Its value is “no signs of too much slowing of the heart rate (severe bradycardia) nor atrial fibrillation”.

What about the “telemetric changes lasting until, after administration” value (end of telemetric measurement, test week 4) of the same compound?
Its value is 24 h.

And the “influence on systolic and diastolic blood pressures” value (oral, 4 weeks)?
The value was “No influence”.

And the “recovery of telemetric changes after 4-week treatment-free recovery period” value (week 8, high dose group 2 x 50 mg/kg b.w./day)?
The value was “full recovery; also recorded: completely subsided”.
